Measured values published in patent publication US20250019371A1, “SMALL-MOLECULAR INHIBITORS FOR THE BETA-CATENIN/ B-CELL LYMPHOMA 9 PROTEIN-PROTEIN INTERACTION” (H. LEE MOFFITT CANCER CENTER AND RESEARCH INSTITUTE, INC., priority 2021, published 2025).
Where two headings read alike, the source gives them in different places.

Experiments:
[1] = biological target: T1, β-catenin/BCL9 PPI (Homo sapiens, UniProt P35222); experiment: AlphaScreen competitive inhibition assay of β-catenin/BCL9 PPI; type: binding
T1 construct: Full-length β-catenin (residues 1-781); host or cells: E. coli BL21 DE3
T1 sequence (P35222 1-781): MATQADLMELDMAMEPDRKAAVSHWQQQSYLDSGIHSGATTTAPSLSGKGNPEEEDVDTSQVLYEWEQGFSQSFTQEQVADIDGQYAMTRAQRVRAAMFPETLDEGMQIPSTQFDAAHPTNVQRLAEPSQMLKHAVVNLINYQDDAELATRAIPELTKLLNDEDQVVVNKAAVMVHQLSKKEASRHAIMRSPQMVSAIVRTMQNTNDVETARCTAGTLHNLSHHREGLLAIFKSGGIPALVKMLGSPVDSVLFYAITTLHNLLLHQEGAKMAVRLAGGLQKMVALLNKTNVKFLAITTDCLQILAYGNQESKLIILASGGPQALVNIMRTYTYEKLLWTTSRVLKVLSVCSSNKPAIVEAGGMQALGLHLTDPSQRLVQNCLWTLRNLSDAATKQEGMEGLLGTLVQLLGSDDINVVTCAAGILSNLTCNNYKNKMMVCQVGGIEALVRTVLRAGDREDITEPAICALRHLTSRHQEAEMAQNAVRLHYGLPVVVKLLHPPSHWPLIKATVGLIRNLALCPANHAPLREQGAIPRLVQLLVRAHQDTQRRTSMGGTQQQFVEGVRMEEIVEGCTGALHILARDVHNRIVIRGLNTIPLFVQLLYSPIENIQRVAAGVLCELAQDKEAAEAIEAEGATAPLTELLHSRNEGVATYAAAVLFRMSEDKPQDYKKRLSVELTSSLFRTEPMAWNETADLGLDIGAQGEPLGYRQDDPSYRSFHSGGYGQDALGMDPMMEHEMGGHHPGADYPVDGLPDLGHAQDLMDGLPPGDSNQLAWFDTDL
Experimental: AlphaScreen Assays of β-Catenin and BCL9 Interaction. Experiments were performed in white opaque 384-well plates from PerkinElmer (Waltham, MA), and the samples were read on a Biotek Synergy 2 plate reader (Winooski, VT) with excitation at 680 nm and emission at 570 nm. The standard AlphaScreen protocol was used with a sensitivity setting of 200. All dilutions were made in 1x assay buffer containing 25 mM Hepes (pH 7.4), 100 mM NaCl, 0.01% Triton X-100 and 0.1% BSA to minimize nonspecific interactions.
For the β-catenin/BCL9 assay, 5 nM biotinylated BCL9, and 50 nM His6-tagged 8-catenin were incubated in assay buffer for 30 min. Different concentrations of the tested inhibitor were added and incubated in 20 μL assay buffer for another 1 h. All of the assay plates were covered and gently mixed on an orbital shaker. Donor and acceptor beads were then added to the plates to a final concentration of 10 μg/mL in 25 μL assay buffer. The mixture was incubated for 1 h before detection. The IC50 value was determined by nonlinear least-square analysis of GraphPad Prism 8.0. […] All of the experiments were performed in triplicate and carried out in the presence of 1% DMSO for small-molecule inhibitors. Each compound was assayed at least by three independent experiments. The results were expressed as mean±standard deviation.

[2] = tested on: FOPFlash luciferase reporter (mutated Tcf4 binding sites); experiment: FOPFlash luciferase reporter assay in SW480 cells; type: cell-based; details: same concentration range as TOPFlash
Experimental: The suppressing effect of the inhibitors on transactivation of Wnt/β-catenin signaling was evaluated by the TOPFlash/FOPFlash luciferase reporter assay. In the TOPFlash assay, the luciferase reporter has three wild-type Tcf4 binding sites, while in the FOPFlash assay Tcf4 binding sites were mutated. These tandem Tcf binding sites controls the expression ratio of the firefly luciferase in TOPFlash/FOPFlash assays. The renilla luciferase reporter construct (pCMV-RL) was used as the internal control to normalize luciferase reporter signals and eliminate any possible systematic errors. […] This selectivity trend is consistent with that from MTS cell viability assays. Therefore, further cell-based studies were focused on compound 30.
Cell Transfection and Luciferase Assay. FuGENE6 (E269A, Promega) 96 well plate format was used for the transfection of SW480 cells according to the manufacturer's instruction. SW480 cells were co-transfected with 60 ng the TOPFlash or FOPFlash firefly luciferase reporter gene and 40 ng renilla luciferase pCMV-RL normalization reporter gene. Cells were cultured in DMEM and 10% FBS at 37° C. for 24 h, and different concentrations of inhibitors or DMSO was added. After 24 h, the luciferase reporter activity was measured using the Dual-Glo system (E2940, Promega). […]

[3] = tested on: Axin2 and cyclin D1 protein expression; experiment: Western blot of Wnt target genes in SW480 cells; type: cell-based; details: 24 h
Experimental: Western Blotting of Wnt Target Genes. SW480 cells at 1×10^6 cells/mL were treated with different concentrations of inhibitors for 24 h. Cells were lysed in buffer containing 50 mM Tris, pH 7.4, 150 mM NaCl, 1% Nonidet P-40, 2 mM EDTA, and protease inhibitors. After centrifugation at 12,000 rpm for 20 min at 4° C., the supernatant was loaded onto an 8% SDS polyacrylamide gel for electrophoretic analysis. Separated proteins were transferred onto nitrocellulose membranes for immunoblot analysis. The antibodies against Axin2 (MA5-15015, Thermo Fisher), cyclin D1 (sc-853, Santa Cruz Biotechnology), and β-tubulin (sc-55529, Santa Cruz Biotechnology) were incubated with the membranes overnight at 4° C., respectively. IRDye 680LT goat anti-mouse IgG (827-11080, LiCOR) or IRDye 800CW goat anti-rabbit IgG (827-08365, LiCOR) was used as the secondary antibody. The images were detected by the Odyssey Infrared Imaging System (Odyssey Fc, LiCOR). Experiments were performed in duplicate.

SMILES: CC(C)(Oc1cccc(N2CCC[C@H](C(=O)N(Cc3ccc(-c4cccs4)cc3)C3CC3)C2)c1)C(=O)NS(=O)(=O)c1ccc(C#N)cc1 [Compound 30, (S)-((4-Cyanophenyl)sulfonyl) (2-(3-(3-(cyclopropyl(4-(thiophen-2-yl)benzyl)carbamoyl)piperidin-1-yl)phenoxy)-2-methylpropanoyl)amide]
- Ki ([1]; AlphaScreen competitive inhibition assay, read-out: Ki for disruption of the β-catenin/BCL9 PPI): 3.6 µM
- AlphaScreen inhibitory activity in words ([1]; SAR comparison): slightly superior to R-isomer
- IC50 ([1]; Table 2, AlphaScreen, inhibitors 27-30 (R- and S-isomers), preliminary): ≤ 5 µM
- Ki ([1]; Table 2, AlphaScreen, inhibitors 27-30 (R- and S-isomers), preliminary, read-out: Ki): ≤ 5 µM
- effect on FOPFlash luciferase reporter activity [2]: did not show any inhibitory effect
- protein expression levels of Axin2 and cyclin D1 (Western blot) [3]: dose-dependently decreased
